Data taken from US6506407B2, “Colon-specific drug release system” (Yamanouchi Pharmaceutical Co., Ltd., priority 1994, dated 2003).

How the values were obtained:
enterobacteria = experiment: generation of organic acid by the action of enterobacteria
[1] = pH in the cecum with time after oral lactulose aqueous solution (Test Example 3); format: in vivo, SD male rats; conditions: for pH in the cecum: oral 100 mg/rat
Experimental: SD male rats deprived of food overnight were orally given a lactulose aqueous solution (100 mg/rat), and the pH in the cecum was measured with time.

[2] = test system: contents of the cecum (enterobacteria); experiment: pH change of dispersion of rat cecal contents in PBS (C-PBS) with lactulose, shaken at 37° C. under anaerobic condition (Test Example 2); set-up: species or system SD male rat
Experimental: A 1/15 M phosphate buffer solution (NaH2PO4-Na2HPO4; pH 7.3; hereinafter referred to as PBS) was made isotonic by addition of sodium chloride and adjusted to pH 6.8 by CO2 bubbling. The contents of the cecum of an SD male rat was dispersed therein to prepare a 10 w/v % dispersion of the cecal contents in PBS (hereinafter referred to as C-PBS). To 10 ml of C-PBS was added 100 mg of lactulose, and the mixture was shaken (50 strokes/min) at 37° C. under an anaerobic condition, and the pH change was measured. As a control, the same test was conducted on no lactulose-administered C-PBS. The same test was carried out on a mixture of 30 w/v % C-PBS and lactulose. As shown in the table, the pH of the cecal contents rapidly decreases by the addition of lactulose.

[3] = water solubility of saccharides and sugar alcohols
[4] = test system: contents of the cecum of a rat (enterobacteria); experiment: pH of 10 w/v % cecal contents dispersion (CPBS) with saccharide (Test Example 7); conditions: 200 mg saccharide in 20 ml 10 w/v % CPBS, 37° C.
Experimental: An isotonic phosphate buffer solution (pH: 7.3; PBS) was adjusted to pH 6.8 by CO2 bubbling. The contents of the cecum of a rat deprived of food for 24 hours was dispersed, therein to prepare a 10 w/v % dispersion of the cecal contents in PBS (CPBS). To 20 ml of CPBS was added 200 mg of a saccharide, and the mixture was shaken in a water bath at 37° C., and the pH of the CPBS was measured with time.

[5] = phosphorus concentration in plasma after salmon calcitonin; format: in vivo; conditions: beagle dogs in fasted condition, s.c., 50 IU/animal, versus untreated control
Experimental: The following solution was subcutaneously administered to beagle dogs in fasted condition. Blood was taken with time to determine the phosphorus concentration in plasma using Inorganic Phosphorus E-HA Test Wako (Wako Pure Chemical Industries, Ltd.).
1% Gelatin solution containing 50 IU/0.2 ml of salmon calcitonin (pH 3; 0.2 ml; 50 IU/animal)
A single tablet of the preparation obtained in Examples 21, 22 or 24 or two tablets of the preparation obtained in Example 23 was administered orally to beagle dogs together with 30 ml of water, and blood was taken with time to determine the phosphorus concentration in plasma.
A single tablet of the preparation obtained in Examples 25, 26 or 28 or two tablets of the preparation obtained in Example 27 was administered orally to beagle dogs together with 30 ml of water, and blood was taken with time to determine the phosphorus concentration in plasma.

With `OC[C@H]1O[C@@H](O[C@@H]2[C@@H](CO)OC(O)(CO)[C@H]2O)[C@H](O)[C@@H](O)[C@H]1O` (mixture of isomers) [lactulose] the “rapid generation of an organic acid by enterobacteria” value (from here on “rapid generation of an organic acid”) (enterobacteria) was “degraded rapidly to generate an organic acid”, the “duration of pH reduction in the cecum” value ([1]; 100 mg/animal) was 8 hours and the “pH in the cecum reduced to” value ([1]; 100 mg/animal, in 3 to 4 hours from the administration) was “about 5.5”. For the same compound, the “pH in the cecum” value ([1]; 1 hr) was 8.2, the “pH in the cecum” value ([1]; 2 hr) was 6.8 and the “pH in the cecum” value ([1]; 3 hr) was 6.2. The “pH in the cecum” value ([1]; 4 hr) was 5.5, the “pH in the cecum” value ([1]; 5 hr) was 5.6 and the “pH in the cecum” value ([1]; 6 hr) was 5.8. For the same compound, the “pH in the cecum” value ([1]; 7 hr) was 5.3, the “pH in the cecum” value ([1]; rats deprived of food overnight, 0 hr) was 7.6 and the “pH of C-PBS” value ([2]; 10 w/v % C-PBS 10 ml, lactulose 100 mg, 0 hr) was 6.42. For the same compound, the “pH of C-PBS” value ([2]; 10 w/v % C-PBS 10 ml, lactulose 100 mg, 2 hr) was 5.93, the “pH of C-PBS” value ([2]; 10 w/v % C-PBS 10 ml, lactulose 100 mg, 4 hr) was 5.64 and the “pH of C-PBS” value ([2]; 10 w/v % C-PBS 10 ml, lactulose 100 mg, 6 hr) was 5.41. For the same compound, the “pH of C-PBS” value ([2]; 10 w/v % C-PBS 10 ml, lactulose 100 mg, 8 hr) was 5.27, the “pH of C-PBS” value ([2]; 10 w/v % C-PBS 10 ml, lactulose 100 mg, 24 hr) was 4.76 and the “pH of C-PBS” value ([2]; 30 w/v % C-PBS and lactulose, 0 hr) was 6.42. The “pH of C-PBS” value ([2]; 30 w/v % C-PBS and lactulose, 2 hr) was 5.39, the “pH of C-PBS” value ([2]; 30 w/v % C-PBS and lactulose, 4 hr) was 5.25 and the “pH of C-PBS” value ([2]; 30 w/v % C-PBS and lactulose, 6 hr) was 5.15. The “pH of C-PBS” value ([2]; 30 w/v % C-PBS and lactulose, 8 hr) was 5.08.
In the case of `O=C(CO)[C@@H](O)[C@H](O)[C@H](O)CO` [fructose], the water solubility [3] is reported as “high”, the “rapid generation of an organic acid” value (enterobacteria) is reported as “generate an organic acid rapidly” and the “degradation by enterobacteria with organic acid generation (pH of CPBS with time)” value (“degradation by enterobacteria” for short) [4] is reported as “degraded by enterobacteria to generate an organic acid similarly to lactulose”.
In the case of `O=C[C@H](O)[C@@H](O)[C@@H](O)[C@H](O)CO` [galactose], the water solubility [3] is reported as “high”, the “rapid generation of an organic acid” value (enterobacteria) is reported as “generate an organic acid rapidly” and the “degradation by enterobacteria” value [4] is reported as “degraded by enterobacteria to generate an organic acid similarly to lactulose”.
In the case of `OC[C@H]1O[C@@H](O[C@H]2[C@H](O)[C@@H](O)C(O)O[C@@H]2CO)[C@H](O)[C@@H](O)[C@H]1O` (stereo partly drawn) [lactose], the “rapid generation of an organic acid” value (enterobacteria) is reported as “no rapid generation of an organic acid”.
For `Cc1occc(=O)c1O` [maltol], the water solubility [3] was “low” and the “rapid generation of an organic acid” value (enterobacteria) was “rapid generation of an organic acid was not observed”.
For `OC[C@H]1O[C@H](O[C@H]2[C@H](O)[C@@H](O)[C@H](O)O[C@@H]2CO)[C@H](O)[C@@H](O)[C@@H]1O` [maltose], the “rapid generation of an organic acid” value (enterobacteria) was “generate an organic acid rapidly” and the “degradation by enterobacteria” value [4] was “degraded by enterobacteria to generate an organic acid similarly to lactulose”.
With `OC[C@@H](O)[C@@H](O)[C@H](O)[C@H](O)CO` [mannitol] the water solubility [3] was “medium” and the “rapid generation of an organic acid” value (enterobacteria) was “rapid generation of an organic acid was not observed”.
In the case of `O=C[C@H](O)[C@H](O)[C@H](O)CO` [ribose], the water solubility [3] is reported as “low” and the “rapid generation of an organic acid” value (enterobacteria) is reported as “no rapid generation of an organic acid”.
For `OC[C@@H](O)[C@@H](O)[C@H](O)[C@@H](O)CO` [sorbitol], the water solubility [3] was “high” and the “rapid generation of an organic acid” value (enterobacteria) was “rapid generation of an organic acid was not observed”.
In the case of `OC[C@H]1O[C@@](CO)(O[C@H]2O[C@H](CO)[C@@H](O)[C@H](O)[C@H]2O)[C@@H](O)[C@@H]1O` [sucrose], the water solubility [3] is reported as “high”, the “rapid generation of an organic acid” value (enterobacteria) is reported as “generate an organic acid rapidly” and the “degradation by enterobacteria” value [4] is reported as “degraded by enterobacteria to generate an organic acid similarly to lactulose”.
For `OC[C@@H](O)[C@H](O)[C@@H](O)CO` [xylitol], the water solubility [3] was “high” and the “rapid generation of an organic acid” value (enterobacteria) was “rapid generation of an organic acid was not observed”.
With `O=C[C@H](O)[C@@H](O)[C@H](O)CO` [xylose] the water solubility [3] was “high” and the “rapid generation of an organic acid” value (enterobacteria) was “generate an organic acid rapidly”.
In the case of fructooligosaccharide, the “degradation by enterobacteria” value [4] is reported as “degraded by enterobacteria to generate an organic acid similarly to lactulose”.
With salmon calcitonin the “phosphorus level in plasma after subcutaneous administration” value [5] was “suppressed immediately after the administration”.
